Source: US6110962A, “11-aryl-benzo[B]naphtho[2,3-D]furans and 11-aryl-benzo[B]naphtho[2,3-D]thiophenes useful in the treatment of insulin resistance and hyperglycemia” (American Home Products Corporation, priority 1999, dated 2000)
Where two headings read alike, the source gives them in different places.

Tests used:
diabetic (ob/ob) mice = assay: Blood glucose lowering activity in diabetic (ob/ob) mice; assay type: in vivo, mouse; settings: Mus musculus, po, ob/ob mice, dose 100 mg/Kg
Method: The blood glucose lowering activity of representative compounds of this invention were determined in an in vivo standard procedure using diabetic (ob/ob) mice. The procedures used and results obtained are briefly described below. The non-insulin dependent diabetic (NIDDM) syndrome can be typically characterizes by obesity, hyperglycemia, abnormal insulin secretion, hyperinsulinemia and insulin resistance. […] In each test procedure, mice [Male or female ob/ob (C57 B1/6J) and their lean litermates (ob+ or +/+, Jackson Laboratories) ages 2 to 5 months (10 to 65 g)] of a similar age were randomized according to body weight into 4 groups of 10 mice. The mice were housed 5 per cage and are maintained on normal rodent chow with water ad libitum. Mice received test compound daily by gavage (suspended in 0.5 ml of 0.5% methyl cellulose); dissolved in the drinking water; or admixed in the diet. […] The dose is calculated based on the fed weekly body weight and is expressed as active moiety. […] Control mice received vehicle only. On the morning of Day 4, 7 or 14 two drops of blood (approximetly 50 ul) were collected into sodium fluoride containing tubes either from the tail vein or after decapitation. For those studies in which the compound was administered daily by gavage the blood samples were collected two hours after compound administration. The plasma was isolated by centrifugation and the concentration of glucose is measured enzymatically on an Abbott V. P. Analyzer. […] Analysis of variance followed by Dunett's Comparison Test (one-tailed) are used to estimate the significant difference between the plasma glucose values from the control group and the individual compound treated groups (CMS SAS Release 5.18).

Human recombinant PTP1B = molecular target: T1, Human recombinant PTP1B (Homo sapiens, UniProt P18031); assay type: biochemical; settings: read-out: IC50
T1 construct: made in house
T1 sequence (P18031 1-435): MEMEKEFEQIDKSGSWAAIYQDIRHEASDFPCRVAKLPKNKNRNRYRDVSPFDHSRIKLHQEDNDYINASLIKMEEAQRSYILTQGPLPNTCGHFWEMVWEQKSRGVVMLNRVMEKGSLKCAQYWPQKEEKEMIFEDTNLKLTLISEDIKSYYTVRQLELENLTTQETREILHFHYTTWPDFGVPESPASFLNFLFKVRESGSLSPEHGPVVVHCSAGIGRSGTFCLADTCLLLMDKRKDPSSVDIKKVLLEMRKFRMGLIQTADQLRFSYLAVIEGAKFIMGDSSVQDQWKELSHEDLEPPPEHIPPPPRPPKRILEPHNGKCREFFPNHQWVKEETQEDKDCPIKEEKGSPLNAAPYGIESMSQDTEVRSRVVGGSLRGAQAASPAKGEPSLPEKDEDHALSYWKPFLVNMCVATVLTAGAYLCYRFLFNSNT

[1] = tested on: rat hepatic microsomal PTPases; settings: PTPase activity, compound at 50 μM

`Brc1cc(-c2c3ccccc3c(Br)c3sc4ccccc4c23)cc(Br)c1O[C@H](Cc1ccccc1)c1nnn[nH]1` [Example 172, (R)-5-{1-[2,6-Dibromo-4-(6-bromo-benzo[b]naphtho[2,3-d]thiophen-11-yl)-phenoxy]-2-phenyl-ethyl}-1 H-tetrazole] showed a change in vivo at 100 mg/kg (diabetic (ob/ob) mice; 96 h, plasma glucose Day 4, 7 or 14, read-out: % Change Glucose from Vehicle) of 5.62%, a change in vivo at 100 mg/kg (diabetic (ob/ob) mice; read-out: % Change Insulin from Vehicle) of -52% and an IC50 (Human recombinant PTP1B) of 76 nM. The “% Change from Control” value [1] was -70.95%.
